Values quoted from earlier work in patent US10206934B2, “Implants and methods for treating inflammation-mediated conditions of the eye” (Allergan, Inc., priority 2000, dated 2019).

Details: fold less potent; 25 mg equivalent to 1 mg dexamethasone

C[C@]12CCC(=O)C=C1CC[C@@H]1[C@@H]2[C@@H](O)C[C@@]2(C)[C@H]1CC[C@]2(O)C(=O)CO [hydrocortisone]
Potency relative to dexamethasone: approximately twentyfivefold
